pEC50, pIC50: −log10 of the molar value.
Experiments:
[1] = target: RNA-directed RNA polymerase (Hepacivirus hominis, UniProt O39930); assay: Inhibitory concentration against Hepatitis C virus NS5B polymerase
[2] = test system: Hepatitis C virus; assay: Cytotoxic concentration against Hepatitis C virus replication using sub-genomic replicon assay; assay type: functional, Hepacivirus hominis
[3] = test system: Hepatitis C virus; assay: Effective concentration against Hepatitis C virus replication using sub-genomic replicon assay; assay type: functional, Hepacivirus hominis; details: read-out: ED50 (the source's name)
[4] = Half-life in rat after 5 mpk dosage administration; assay type: ADME, organism-based; details: in vivo, 5 mg/kg
[5] = Maximum concentration in plasma levels in rat after 5 mpk dosage administration; assay type: ADME, organism-based; parameters: dose 5 mpk; details: 5 mg/kg
[6] = Bioavailability in rat (dose 5 mg/kg); assay type: ADME, organism-based; details: in vivo
[7] = Clearance at low levels in rat after 5 mpk dosage administration; assay type: ADME, organism-based; details: in vivo, 5 mg/kg

RNA-directed RNA polymerase, sequence (O39930 whole entry): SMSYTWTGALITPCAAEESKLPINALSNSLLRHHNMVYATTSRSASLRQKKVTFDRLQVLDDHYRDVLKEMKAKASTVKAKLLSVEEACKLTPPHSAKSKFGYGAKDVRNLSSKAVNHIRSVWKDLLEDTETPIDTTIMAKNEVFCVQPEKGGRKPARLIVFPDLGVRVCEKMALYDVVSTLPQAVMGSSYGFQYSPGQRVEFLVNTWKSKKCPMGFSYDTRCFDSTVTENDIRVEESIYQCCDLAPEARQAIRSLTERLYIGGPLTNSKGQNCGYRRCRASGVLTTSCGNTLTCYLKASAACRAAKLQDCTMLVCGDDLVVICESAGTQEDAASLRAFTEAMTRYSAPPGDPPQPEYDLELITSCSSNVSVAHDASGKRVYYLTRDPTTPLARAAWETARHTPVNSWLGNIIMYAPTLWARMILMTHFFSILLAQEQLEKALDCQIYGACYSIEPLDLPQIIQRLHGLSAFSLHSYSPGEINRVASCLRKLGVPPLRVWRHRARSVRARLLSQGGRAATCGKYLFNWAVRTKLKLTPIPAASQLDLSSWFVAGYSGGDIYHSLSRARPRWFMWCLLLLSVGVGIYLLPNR

Row | pIC50 [1] | Structure (SMILES) | also measured
1 | 5.03 | CCc1ccccc1Oc1ccc(/C=C(\NC(=O)c2ccccc2)C(=O)O)cc1 | 
2 | 4.33 | N#Cc1ccccc1Oc1ccc(/C=C(\NC(=O)c2ccccc2)C(=O)O)cc1 | 
3 | 5.89 | O=C(O)/C(=C/c1ccc(Oc2ccccc2C(F)(F)F)cc1)NC(=O)c1ccccc1 | 
4 | 6.24 | Cc1ccccc1Oc1ccc(/C=C(\NC(=O)c2ccccc2)C(=O)O)cc1 | 
5 | 4.70 | O=C(O)/C(=C/c1ccc(-c2ccccc2CO)s1)NC(=O)c1ccccc1 | 
6 | 4.66 | O=C(O)/C(=C/c1ccc(-c2ccc(OC(F)(F)F)cc2)o1)NC(=O)c1ccccc1 | 
7 | 5.16 | O=C(O)/C(=C/c1ccc(Oc2ccccc2F)cc1)NC(=O)c1ccccc1 | 
8 | 4.77 | O=C(O)/C(=C/c1ccc(Oc2ccccc2)cc1)NC(=O)c1ccccc1 | 
9 | 5.40 | O=C(O)/C(=C/c1ccc(-c2ccccc2OC(F)(F)F)o1)NC(=O)c1ccccc1 | 
10 | 5.85 | Cc1ccccc1-c1ccc(/C=C(\NC(=O)c2ccccc2)C(=O)O)s1 | 
11 | 5.41 | O=C(O)/C(=C/c1ccc(-c2cccc(F)c2)o1)NC(=O)c1ccccc1 | 
12 | 5.89 | O=C(O)/C(=C/c1ccc(-c2ccccc2Cl)o1)NC(=O)c1ccccc1 | 
13 | 5.82 | O=C(O)/C(=C/c1ccc(-c2ccccc2)s1)NC(=O)c1ccccc1 | 
14 | 4.70 | COc1ccccc1-c1ccc(/C=C(\NC(=O)c2ccccc2)C(=O)O)o1 | 
15 | 6.18 | O=C(O)/C(=C/c1ccc(-c2ccccc2Cl)s1)NC(=O)c1ccccc1 | 
16 | 6.51 | Nc1cccc(Cl)c1Oc1ccc(/C=C(\NC(=O)c2ccccc2)C(=O)O)cc1 | 
17 | 4.96 | O=C(O)/C(=C/c1cccc(-c2ccccc2Cl)n1)NC(=O)c1ccccc1 | 
18 | 7.15 | O=C(O)/C(=C/c1ccc(Oc2c(F)cccc2Cl)cc1)NC(=O)c1ccccc1 | 
19 | 4.57 | CSc1ccc(-c2ccc(/C=C(\NC(=O)c3ccccc3)C(=O)O)o2)cc1 | 
20 | 5.89 | O=C(O)/C(=C/c1cccc(-c2ccccc2Cl)c1)NC(=O)c1ccccc1 | 
21 | 7.52 | O=C(O)/C(=C/c1ccc(Oc2c(F)cccc2Br)cc1)NC(=O)c1ccccc1 | CC50 [2]: > 100 µM; pEC50 [3]: 4.30
22 | 5.28 | O=C(O)/C(=C/c1ncc(-c2ccccc2Cl)s1)NC(=O)c1ccccc1 | 
23 | 5.26 | O=C(O)/C(=C/c1ccc(Oc2c(Cl)cccc2[N+](=O)[O-])cc1)NC(=O)c1ccccc1 | 

Row | pIC50 [1] | Structure (SMILES) | also measured
24 | 5.59 | O=C(O)/C(=C/c1ccc(-c2ccccc2F)s1)NC(=O)c1ccccc1 | 
25 | 4.36 | CC(C)Oc1ccccc1Oc1ccc(/C=C(\NC(=O)c2ccccc2)C(=O)O)cc1 | 
26 | 4.32 | O=C(O)/C(=C/c1ccc(Oc2ccccc2-c2ccccc2)cc1)NC(=O)c1ccccc1 | 
27 | 4.89 | O=C(O)/C(=C/c1ccc(-c2ccc(C(F)(F)F)cc2)o1)NC(=O)c1ccccc1 | 
28 | 4.92 | O=C(O)/C(=C/c1ccc(-c2ccc(F)cc2)o1)NC(=O)c1ccccc1 | 
29 | 4.55 | CC(C)c1ccccc1Oc1ccc(/C=C(\NC(=O)c2ccccc2)C(=O)O)cc1 | 
30 | 7.00 | O=C(O)/C(=C/c1ccc(Oc2ccccc2Br)cc1)NC(=O)c1ccccc1 | CC50 [2]: > 100 µM; half-life [4]: 1.5 h; pEC50 [3]: 4.55; Cmax [5]: 9 µM; bioavailability [6]: 21%; clearance [7]: 3.33 mL/min/kg
31 | 4.18 | O=C(O)/C(=C/c1ccc(-c2cccc(OC(F)(F)F)c2)o1)NC(=O)c1ccccc1 | 
32 | 5.22 | O=C(O)/C(=C/c1ccc(-c2cccc(Cl)c2)o1)NC(=O)c1ccccc1 | 
33 | 5.74 | CSc1ccccc1Oc1ccc(/C=C(\NC(=O)c2ccccc2)C(=O)O)cc1 | 
34 | 6.70 | O=C(O)/C(=C/c1ccc(Oc2ccccc2Cl)cc1)NC(=O)c1ccccc1 | CC50 [2]: > 100 µM; half-life [4]: 1.9 h; pEC50 [3]: 4.22; Cmax [5]: 22 µM; bioavailability [6]: 42%; clearance [7]: 5.17 mL/min/kg
35 | 4.14 | O=C(O)/C(=C/c1ccc(Oc2ccccc2[N+](=O)[O-])cc1)NC(=O)c1ccccc1 | 
36 | 5.52 | Cc1ccccc1-c1ccc(/C=C(\NC(=O)c2ccccc2)C(=O)O)o1 | 
37 | 4.60 | O=C(O)/C(=C/c1ccc(-c2cccc([N+](=O)[O-])c2)o1)NC(=O)c1ccccc1 | 
38 | 5.06 | O=C(O)/C(=C/c1ccc(-c2cccc(C(F)(F)F)c2)o1)NC(=O)c1ccccc1 | 
39 | 5.17 | O=C(O)/C(=C/c1ccc(-c2ccccc2)o1)NC(=O)c1ccccc1 | CC50 [2]: > 100 µM; pEC50 [3]: < 4.00
40 | 6.70 | Cc1cccc(Cl)c1Oc1ccc(/C=C(\NC(=O)c2ccccc2)C(=O)O)cc1 | 
41 | 4.82 | COc1ccccc1Oc1ccc(/C=C(\NC(=O)c2ccccc2)C(=O)O)cc1 | 
42 | 5.16 | O=C(O)/C(=C/c1ccc(-c2ccccc2[N+](=O)[O-])o1)NC(=O)c1ccccc1 | 
43 | 5.51 | O=C(O)/C(=C/c1ccc(-c2ccccc2F)o1)NC(=O)c1ccccc1 | 
44 | 5.25 | O=C(O)/C(=C/c1ccc(-c2ccccc2C(F)(F)F)o1)NC(=O)c1ccccc1 | 
45 | 7.40 | O=C(O)/C(=C/c1ccc(Oc2ccccc2I)cc1)NC(=O)c1ccccc1 | CC50 [2]: > 100 µM; pEC50 [3]: 4.54
46 | 5.34 | O=C(O)/C(=C/c1ccc(-c2ccc(Cl)cc2)o1)NC(=O)c1ccccc1 | 

Row | Structure (SMILES) | pIC50 [1] | also measured
47 | O=C(O)/C(=C/c1ccc(-c2ccc([N+](=O)[O-])cc2)o1)NC(=O)c1ccccc1 | < 4.00 | 
48 | NS(=O)(=O)c1cccc(-c2ccc(/C=C(\NC(=O)c3ccccc3)C(=O)O)o2)c1 | < 4.00 | 
49 | O=C(O)/C(=C/c1ccc(-c2ccc(CO)cc2)o1)NC(=O)c1ccccc1 | < 4.00 | 
50 | NS(=O)(=O)c1ccc(-c2ccc(/C=C(\NC(=O)c3ccccc3)C(=O)O)o2)cc1 | < 4.00 | 
51 | O=C(O)/C(=C/c1ccc(-c2cccc(CO)c2)o1)NC(=O)c1ccccc1 | < 4.00 | 
52 | O=C(O)/C(=C/c1cncc(-c2ccccc2Cl)c1)NC(=O)c1ccccc1 | < 4.00 | 
53 | CC(C)(C)c1ccccc1Oc1ccc(/C=C(\NC(=O)c2ccccc2)C(=O)O)cc1 | < 4.00 | 

Reference: ChEMBL document CHEMBL1140265, “Inhibitors of HCV NS5B polymerase. Part 1: Evaluation of the southern region of (2Z)-2-(benzoylamino)-3-(5-phenyl-2-furyl)acrylic acid” (Bioorg Med Chem Lett, 2005)
